Assay results reported in US11999727B2 (Tango Therapeutics, Inc., priority 2020, dated 2024).

Tests used:
Assay type in all cases: cell-based
[1] = system: HAP1 MTAP-deleted cell line; assay: Viability assay, MTAP-deleted cell line; conditions: Homo sapiens, HAP1, read-out: HAP1 MTAP deleted viability
Source text: Table 1 additionally indicates IC50 values in a viability assay for the MTAP-deleted cell line (column 10), indicating the effect of treatment with compound on cell survival.

[2] = system: HAP1 MTAP-intact cell line; assay: SDMA in-cell western assay, HAP1 MTAP-intact; conditions: Homo sapiens, HAP1, read-out: MTAP HAP1 intact IC50
Source text: (§1) Table 1 also indicates IC50 values in an MTAP-isogenic cell line pair for exemplary compounds in an SDMA in-cell western assay (columns 7-8). HAP1 MTAP-intact is a cell line in which endogenous levels of MTAP are expressed, and HAP1 MTAP-deleted is an MTAP-null cell line.

[3] = system: HAP1 MTAP-deleted cell line; assay: SDMA in-cell western assay, HAP1 MTAP-deleted; conditions: Homo sapiens, HAP1, read-out: HAP1 MTAP deleted IC50
Source text: as §1

Structure (SMILES) | IC50 [1] [nM] | IC50 [2] [nM] | IC50 [3] [nM]
Cc1cncc(NC(=O)C(=O)N2[C@H](c3ccccc3)CC[C@@H](C)[C@@H]2C)c1 (single isomer, unassigned) [Compound 39] | > 10000 | > 1000 | > 1000
C[C@H]1CC[C@@H](c2ccccc2)N(C(=O)C(=O)Nc2cncc(C(N)=O)c2)C1 (single isomer, unassigned) [Compound 82] | > 10000 | > 1000 | 100 to 1000
C[C@H]1CC[C@H](c2ccccc2)N(C(=O)C(=O)Nc2cncc(C(N)=O)c2)C1 (single isomer, unassigned) [Compound 88] | 1000 to 10000 | > 1000 | < 100
Cc1cc(NC(=O)C(=O)N2CCCC[C@H]2c2ccccc2)cnc1C (single isomer, unassigned) [Compound 188] | > 10000 | > 1000 | > 1000
Cc1cc(NC(=O)C(=O)N2CCCC[C@@H]2c2ccccc2)cnc1C (single isomer, unassigned) [Compound 189] | > 10000 | > 1000 | > 1000
Cc1cc(NC(=O)C(=O)N2C[C@H](C)CC[C@H]2c2ccc(F)cc2)cnc1N (single isomer, unassigned) [Compound 233] | > 10000 | > 1000 | > 1000
Cc1cc(NC(=O)C(=O)N2C[C@@H](C)CC[C@@H]2c2ccc(F)cc2)cnc1N (single isomer, unassigned) [Compound 242] | < 1000 | 100 to 1000 | < 100
C[C@H]1CC[C@H](c2ccc(O)cc2)N(C(=O)C(=O)Nc2cncc(C(N)=O)c2)C1 (single isomer, unassigned) [Compound 287] | < 1000 | 100 to 1000 | < 100
C[C@@H]1CC[C@@H](c2ccc(O)cc2)N(C(=O)C(=O)Nc2cncc(C(N)=O)c2)C1 (single isomer, unassigned) [Compound 297] | > 10000 | > 1000 | > 1000
C[C@H]1CC[C@H](c2ccc3c(c2)CC(=O)N3)N(C(=O)C(=O)Nc2cncc(C(N)=O)c2)C1 (single isomer, unassigned) [Compound 319] | 1000 to 10000 | 100 to 1000 | < 100
C[C@@H]1CC[C@@H](c2ccc3[nH]cnc3c2)N(C(=O)C(=O)Nc2cncc(C(N)=O)c2)C1 (single isomer, unassigned) [Compound 344] | 1000 to 10000 | > 1000 | 100 to 1000
C[C@@H]1CC[C@@H](c2ccc(C(F)F)cc2)N(C(=O)C(=O)Nc2cncc(C(N)=O)c2)C1 (single isomer, unassigned) [Compound 358] | > 10000 | > 1000 | > 1000
C[C@H]1CC[C@H](c2ccc(C(F)F)cc2)N(C(=O)C(=O)Nc2cncc(C(N)=O)c2)C1 (single isomer, unassigned) [Compound 359] | 1000 to 10000 | > 1000 | < 100
C[C@H]1CC[C@H](c2ccc3[nH]ncc3c2)N(C(=O)C(=O)Nc2cncc(C(N)=O)c2)C1 (single isomer, unassigned) [Compound 360] | > 10000 | > 1000 | > 1000
C[C@@H]1CC[C@@H](c2ccc3[nH]ncc3c2)N(C(=O)C(=O)Nc2cncc(C(N)=O)c2)C1 (single isomer, unassigned) [Compound 361] | < 1000 | 100 to 1000 | < 100
Cc1cc(NC(=O)C(=O)N2C[C@H](C)CC[C@H]2c2ccc3[nH]ncc3c2)cnc1N (single isomer, unassigned) [Compound 363] | < 1000 | < 100 | < 100

Structure (SMILES) | IC50 [1] [nM] | IC50 [2] [nM] | IC50 [3] [nM]
Cc1cc(NC(=O)C(=O)N2C[C@@H](C)CC[C@@H]2c2ccc3[nH]ncc3c2)cnc1N (single isomer, unassigned) [Compound 364] | > 10000 | > 1000 | > 1000
C[C@@H]1CC[C@@H](c2ccc3[nH]ccc3c2)N(C(=O)C(=O)Nc2cncc(C(N)=O)c2)C1 (single isomer, unassigned) [Compound 372] | > 10000 | > 1000 | > 1000
Cc1cc(NC(=O)C(=O)N2C[C@H](C)CC[C@H]2c2ccc3[nH]ccc3c2)cnc1N (single isomer, unassigned) [Compound 385] | < 1000 | 100 to 1000 | < 100
Cc1cc(NC(=O)C(=O)N2C[C@@H](C)CC[C@@H]2c2ccc3[nH]ccc3c2)cnc1N (single isomer, unassigned) [Compound 388] | > 10000 | > 1000 | > 1000
Cc1cc(NC(=O)C(=O)N2C[C@@H](C)CC[C@H]2c2ccc3[nH]ncc3c2)cnc1N (single isomer, unassigned) [Compound 392] | 1000 to 10000 | > 1000 | < 100
Cc1cc(NC(=O)C(=O)N2C[C@@H](C)CC[C@@H]2c2ccc(O)cc2)cnc1N (single isomer, unassigned) [Compound 396] | > 10000 | > 1000 | > 1000
Cc1cc(NC(=O)C(=O)N2C[C@H](C)CC[C@H]2c2ccc(O)cc2)cnc1N (single isomer, unassigned) [Compound 397] | < 1000 | 100 to 1000 | < 100
Cc1cc(NC(=O)C(=O)N2C[C@@H](C)CC[C@@H]2c2ccc3[nH]cnc3c2)cnc1N (single isomer, unassigned) [Compound 408] | < 1000 | 100 to 1000 | < 100
Cc1cc(NC(=O)C(=O)N2C[C@H](C)CC[C@H]2c2ccc(C(F)F)cc2)cnc1N (single isomer, unassigned) [Compound 419] | 1000 to 10000 | 100 to 1000 | < 100
C[C@H]1CC[C@H](c2ccc3c(c2)CCC(=O)N3)N(C(=O)C(=O)Nc2cncc(C(N)=O)c2)C1 (single isomer, unassigned) [Compound 479] | 1000 to 10000 | > 1000 | < 100
C[C@@H]1CC[C@@H](c2ccc3c(c2)CCC(=O)N3)N(C(=O)C(=O)Nc2cncc(C(N)=O)c2)C1 (single isomer, unassigned) [Compound 480] | > 10000 | > 1000 | > 1000
C[C@H]1CC[C@H](c2ccc3[nH]ccc3c2)N(C(=O)C(=O)Nc2cncc(C(N)=O)c2)C1 (single isomer, unassigned) [Compound 481] | < 1000 | 100 to 1000 | < 100
Cc1cc(NC(=O)C(=O)N2C[C@@H](C)CC[C@@H]2c2ccc3c(c2)CCC(=O)N3)cnc1N (single isomer, unassigned) [Compound 502] | < 1000 | 100 to 1000 | < 100
Cc1cc(NC(=O)C(=O)N2C[C@H](C)CC[C@H]2c2ccc3c(c2)CCC(=O)N3)cnc1N (single isomer, unassigned) [Compound 505] | < 1000 | 100 to 1000 | < 100
C[C@H]1CC[C@H](c2ccc3scnc3c2)N(C(=O)C(=O)Nc2cncc(C(N)=O)c2)C1 (single isomer, unassigned) [Compound 587] | < 1000 | 100 to 1000 | < 100
C[C@@H]1CC[C@@H](c2ccc3scnc3c2)N(C(=O)C(=O)Nc2cncc(C(N)=O)c2)C1 (single isomer, unassigned) [Compound 588] | > 10000 | > 1000 | > 1000
